Assay results from publication PMC5218480 (PLoS ONE, 2017).

Test system: MV-4-11 cells
Experiment: Gene expression microarray analysis (Affymetrix PrimeView) and GSEA
Type: cell-based, human
Set-up: RFU PODN (11730768_x_at) / Fold change /veh PODN (11730768_x_at) / RFU LINC00158 (11744669_a_at) / Fold change /veh LINC00158 (11744669_a_at) / RFU DUSP10 (11751237_a_at) / Fold change /veh DUSP10 (11751237_a_at) / RFU ID3 (11757404_x_at) / Fold change /veh ID3 (11757404_x_at) / RFU PLEKHG5 (11737974_s_at) / Fold change /veh PLEKHG5 (11737974_s_at) / RFU LRRC4B (11730491_at) / Fold change /veh LRRC4B (11730491_at) / RFU GIMAP4 (11747438_a_at) / Fold change /veh GIMAP4 (11747438_a_at) / RFU KRT8 (11758183_x_at) / Fold change /veh KRT8 (11758183_x_at) / RFU CNN1 (11734310_a_at) / Fold change /veh CNN1 (11734310_a_at) / RFU VPS37D (11726825_at) / Fold change /veh VPS37D (11726825_at) / RFU C10orf10 (11716522_x_at) / Fold change /veh C10orf10 (11716522_x_at) / RFU KIR2DL2 /// KIR2DL4 /// KIR2DL5A /// KIR2DL5B /// KIR2DS1 /// KIR2DS2 /// KIR2DS3 /// KIR2DS4 /// KIR3DL3 /// KIR3DL3 /// KIR3DS1 (11738374_at) / Fold change /veh KIR2DL2 /// KIR2DL4 /// KIR2DL5A /// KIR2DL5B /// KIR2DS1 /// KIR2DS2 /// KIR2DS3 /// KIR2DS4 /// KIR3DL3 /// KIR3DL3 /// KIR3DS1 (11738374_at) / RFU C1QL1 (11718748_at) / Fold change /veh C1QL1 (11718748_at) / RFU TMPRSS4 (11747572_a_at) / Fold change /veh TMPRSS4 (11747572_a_at) / RFU HAMP (11756126_x_at) / Fold change /veh HAMP (11756126_x_at) / RFU RNFT2 (11725882_a_at) / Fold change /veh RNFT2 (11725882_a_at) / RFU NR4A2 (11747474_a_at) / Fold change /veh NR4A2 (11747474_a_at) / RFU ABCC12 (11746883_a_at) / Fold change /veh ABCC12 (11746883_a_at) / RFU TMEM136 (11760407_x_at) / Fold change /veh TMEM136 (11760407_x_at) / RFU CLDN22 /// WWC2 (11732394_at) / Fold change /veh CLDN22 /// WWC2 (11732394_at) / RFU HLA-DPB1 (11760878_x_at) / Fold change /veh HLA-DPB1 (11760878_x_at) / RFU SPINT1 (11716480_a_at) / Fold change /veh SPINT1 (11716480_a_at) / RFU GAP43 (11754022_s_at) / Fold change /veh GAP43 (11754022_s_at) / RFU A4GNT (11735810_at) / Fold change /veh A4GNT (11735810_at) / RFU PRB3 (11715151_x_at) / Fold change /veh PRB3 (11715151_x_at) / RFU TUBB4B (11761932_at) / Fold change /veh TUBB4B (11761932_at) / RFU CAPN14 (11732068_a_at) / Fold change /veh CAPN14 (11732068_a_at) / RFU TMCC2 (11721928_a_at) / Fold change /veh TMCC2 (11721928_a_at) / RFU IRGQ (11745062_a_at) / Fold change /veh IRGQ (11745062_a_at) / RFU FAM174B (11720279_a_at) / Fold change /veh FAM174B (11720279_a_at) / RFU TMPRSS4 (11748680_a_at) / Fold change /veh TMPRSS4 (11748680_a_at) / RFU FAM212B (11763350_a_at) / Fold change /veh FAM212B (11763350_a_at) / RFU PLEKHG5 (11743358_a_at) / Fold change /veh PLEKHG5 (11743358_a_at) / RFU ZSCAN30 (11745921_a_at) / Fold change /veh ZSCAN30 (11745921_a_at) / RFU CMKLR1 (11741424_a_at) / Fold change /veh CMKLR1 (11741424_a_at) / RFU LOC101060620 /// MAPK8IP1 (11723275_at) / Fold change /veh LOC101060620 /// MAPK8IP1 (11723275_at) / RFU SPTSSB (11747773_x_at) / Fold change /veh SPTSSB (11747773_x_at) / RFU PRSS12 (11739890_at) / Fold change /veh PRSS12 (11739890_at) / RFU BIN1 (11741810_x_at) / Fold change /veh BIN1 (11741810_x_at) / RFU WNT11 (11732464_a_at) / Fold change /veh WNT11 (11732464_a_at) / RFU C10orf10 (11716521_a_at) / Fold change /veh C10orf10 (11716521_a_at) / RFU C5orf56 (11738089_at) / Fold change /veh C5orf56 (11738089_at) / RFU CYB561 (11721691_x_at) / Fold change /veh CYB561 (11721691_x_at) / RFU ANKRD19P (11752326_a_at) / Fold change /veh ANKRD19P (11752326_a_at) / RFU OR2T12 /// OR2T33 /// OR2T8 (11738714_s_at) / Fold change /veh OR2T12 /// OR2T33 /// OR2T8 (11738714_s_at) / RFU VCAN (11748164_a_at) / Fold change /veh VCAN (11748164_a_at) / RFU JSRP1 (11732532_at) / Fold change /veh JSRP1 (11732532_at) / RFU KRTAP10-11 (11738290_x_at) / Fold change /veh KRTAP10-11 (11738290_x_at) / RFU MYO3A (11730013_a_at) / Fold change /veh MYO3A (11730013_a_at) / RFU EBF3 (11725865_a_at) / Fold change /veh EBF3 (11725865_a_at) / RFU CAMK2N1 (11719241_x_at) / Fold change /veh CAMK2N1 (11719241_x_at) / RFU C5orf56 (11738088_a_at) / Fold change /veh C5orf56 (11738088_a_at) / RFU OLFML3 (11715873_a_at) / Fold change /veh OLFML3 (11715873_a_at) / RFU LOC100653217 /// NTM (11731650_a_at) / Fold change /veh LOC100653217 /// NTM (11731650_a_at) / RFU MAPK11 (11762145_a_at) / Fold change /veh MAPK11 (11762145_a_at) / RFU FIZ1 (11724087_x_at) / Fold change /veh FIZ1 (11724087_x_at) / RFU OASL (11726364_x_at) / Fold change /veh OASL (11726364_x_at) / RFU SOX15 (11748057_x_at) / Fold change /veh SOX15 (11748057_x_at) / RFU CD79A (11719716_a_at) / Fold change /veh CD79A (11719716_a_at) / RFU HIST1H1D (11736915_at) / Fold change /veh HIST1H1D (11736915_at) / RFU CASKIN2 (11723855_a_at) / Fold change /veh CASKIN2 (11723855_a_at) / RFU LOC730098 (11760151_x_at) / Fold change /veh LOC730098 (11760151_x_at) / RFU OR4N2 (11742367_at) / Fold change /veh OR4N2 (11742367_at) / RFU PRRT2 (11749266_a_at) / Fold change /veh PRRT2 (11749266_a_at) / RFU SNX32 (11753110_a_at) / Fold change /veh SNX32 (11753110_a_at) / RFU CDHR5 (11726645_a_at) / Fold change /veh CDHR5 (11726645_a_at) / RFU RCAN1 (11760418_a_at) / Fold change /veh RCAN1 (11760418_a_at) / RFU FAM167A (11723789_a_at) / Fold change /veh FAM167A (11723789_a_at) / RFU FAM26E (11764081_at) / Fold change /veh FAM26E (11764081_at) / RFU ISYNA1 (11749810_s_at) / Fold change /veh ISYNA1 (11749810_s_at) / RFU ACY1 (11761880_at) / Fold change /veh ACY1 (11761880_at) / RFU 11764098_at / Fold change /veh 11764098_at / RFU SAMD14 (11745864_x_at) / Fold change /veh SAMD14 (11745864_x_at) / RFU NPB (11741838_a_at) / Fold change /veh NPB (11741838_a_at) / RFU TMPRSS6 (11731388_a_at) / Fold change /veh TMPRSS6 (11731388_a_at) / RFU KRTAP10-2 (11738614_at) / Fold change /veh KRTAP10-2 (11738614_at) / RFU ARHGAP8 /// PRR5-ARHGAP8 (11727945_x_at) / Fold change /veh ARHGAP8 /// PRR5-ARHGAP8 (11727945_x_at) / RFU KRTAP5-7 /// NADSYN1 (11734609_at) / Fold change /veh KRTAP5-7 /// NADSYN1 (11734609_at) / RFU RASL12 (11751679_a_at) / Fold change /veh RASL12 (11751679_a_at) / RFU CDKN2B (11736163_a_at) / Fold change /veh CDKN2B (11736163_a_at) / RFU PRF1 (11729649_at) / Fold change /veh PRF1 (11729649_at) / RFU, ZNF638 /// ZNF638-IT1 / Fold change vs veh, ZNF638 /// ZNF638-IT1 / RFU, PANK3 / Fold change vs veh, PANK3 / RFU, SH3YL1 / Fold change vs veh, SH3YL1 / RFU, ZEB2 / Fold change vs veh, ZEB2 / RFU, NRIP1 / Fold change vs veh, NRIP1 / RFU, PTTG1IP / Fold change vs veh, PTTG1IP / RFU, CAPN2 / Fold change vs veh, CAPN2 / RFU, MED14 / Fold change vs veh, MED14 / RFU, SNORA58 / Fold change vs veh, SNORA58 / RFU, C1orf63 / Fold change vs veh, C1orf63 / RFU, LRRFIP1 / Fold change vs veh, LRRFIP1 / RFU, NDUFAF7 / Fold change vs veh, NDUFAF7 / RFU, SLC12A2 / Fold change vs veh, SLC12A2 / RFU, IBTK / Fold change vs veh, IBTK / RFU, ESF1 / Fold change vs veh, ESF1 / Fold change vs veh, TMEM50B / RFU, TAOK1 / Fold change vs veh, TAOK1 / RFU, ACBD3 / Fold change vs veh, ACBD3 / RFU, TMA16 / Fold change vs veh, TMA16 / RFU, RWDD3 / Fold change vs veh, RWDD3 / RFU, BCAT1 / Fold change vs veh, BCAT1 / RFU, EDEM3 / Fold change vs veh, EDEM3 / RFU, TMEM33 / Fold change vs veh, TMEM33 / RFU, WDR75 / Fold change vs veh, WDR75 / RFU, AHCTF1 / Fold change vs veh, AHCTF1 / RFU, TFRC / Fold change vs veh, TFRC / RFU, ZDHHC17 / Fold change vs veh, ZDHHC17 / RFU, NOM1 / Fold change vs veh, NOM1 / RFU, ARL8B / Fold change vs veh, ARL8B / RFU, ZBTB11 / Fold change vs veh, ZBTB11 / RFU, TAMM41 / Fold change vs veh, TAMM41 / RFU, KIAA1704 /// LOC100996395 / Fold change vs veh, KIAA1704 /// LOC100996395 / RFU, ING1 / Fold change vs veh, ING1 / RFU, TRMT61B / Fold change vs veh, TRMT61B / RFU, FUBP3 / Fold change vs veh, FUBP3 / RFU, TP53 / Fold change vs veh, TP53 / RFU, TNKS2 / Fold change vs veh, TNKS2 / RFU, ZFP14 / Fold change vs veh, ZFP14 / RFU, ACTR2 / Fold change vs veh, ACTR2 / RFU, PPP3R1 / Fold change vs veh, PPP3R1 / RFU, PIK3R1 / Fold change vs veh, PIK3R1 / RFU, HNRNPA1 / Fold change vs veh, HNRNPA1 / RFU, RNF170 / Fold change vs veh, RNF170 / RFU, ZNF28 / Fold change vs veh, ZNF28 / RFU, RNGTT / Fold change vs veh, RNGTT / RFU, OGT / Fold change vs veh, OGT / RFU, BRD1 / Fold change vs veh, BRD1 / RFU, MARS / Fold change vs veh, MARS / RFU, ZNF655 / Fold change vs veh, ZNF655 / RFU, FAHD1 / Fold change vs veh, FAHD1 / RFU, BDP1 / Fold change vs veh, BDP1 / RFU, LRRCC1 / Fold change vs veh, LRRCC1 / RFU, ARID1A / Fold change vs veh, ARID1A / RFU, ZNF146 / Fold change vs veh, ZNF146 / RFU, ZNF330 / Fold change vs veh, ZNF330 / RFU, GPN3 / Fold change vs veh, GPN3 / RFU, C9orf123 / Fold change vs veh, C9orf123 / RFU, N4BP2L2 / Fold change vs veh, N4BP2L2 / RFU, ARFIP1 / Fold change vs veh, ARFIP1 / RFU, FAM179B / Fold change vs veh, FAM179B / RFU, BCL10 / Fold change vs veh, BCL10 / RFU, UHRF1BP1L / Fold change vs veh, UHRF1BP1L / RFU, BET1 / Fold change vs veh, BET1 / RFU, CNOT2 / Fold change vs veh, CNOT2 / RFU, ZNF268 / Fold change vs veh, ZNF268 / Fold change vs veh, ZNF507 / RFU, DGCR2 / Fold change vs veh, DGCR2 / RFU, WDSUB1 / Fold change vs veh, WDSUB1 / Fold change vs veh, HSP90B1 /// MIR3652 / RFU, ADSS / Fold change vs veh, ADSS / RFU, GK / Fold change vs veh, GK / RFU, ZNF148 / Fold change vs veh, ZNF148 / RFU, TAF9 / Fold change vs veh, TAF9 / RFU, SLC1A5 / Fold change vs veh, SLC1A5 / RFU, SLMO2 / Fold change vs veh, SLMO2 / RFU, ABCC4 / Fold change vs veh, ABCC4 / RFU, LOC101060439 /// RAP1B / Fold change vs veh, LOC101060439 /// RAP1B / RFU, RFX7 / Fold change vs veh, RFX7 / RFU, GTPBP10 / Fold change vs veh, GTPBP10 / RFU, CNEP1R1 / Fold change vs veh, CNEP1R1 / RFU, BIVM-ERCC5 /// ERCC5 / Fold change vs veh, BIVM-ERCC5 /// ERCC5 / RFU, ILF3 / Fold change vs veh, ILF3 / RFU 11762660_at / Fold change /veh 11762660_at / RFU VCAN (11757783_s_at) / Fold change /veh VCAN (11757783_s_at) / RFU DDX43 (11728927_at) / Fold change /veh DDX43 (11728927_at) / RFU KRT8 (11758188_x_at) / Fold change /veh KRT8 (11758188_x_at) / RFU NKD1 (11759106_at) / Fold change /veh NKD1 (11759106_at) / RFU SRD5A1 (11742802_a_at) / Fold change /veh SRD5A1 (11742802_a_at) / RFU TPSAB1 /// TPSB2 (11721975_s_at) / Fold change /veh TPSAB1 /// TPSB2 (11721975_s_at) / RFU GSTM3 (11746129_a_at) / Fold change /veh GSTM3 (11746129_a_at) / RFU IL23R (11737362_x_at) / Fold change /veh IL23R (11737362_x_at) / RFU TMEM51 (11727254_a_at) / Fold change /veh TMEM51 (11727254_a_at) / RFU PIWIL2 (11732686_x_at) / Fold change /veh PIWIL2 (11732686_x_at) / RFU ORM1 (11744905_x_at) / Fold change /veh ORM1 (11744905_x_at) / RFU CCDC152 (11743942_at) / Fold change /veh CCDC152 (11743942_at) / RFU ECM1 (11717891_a_at) / Fold change /veh ECM1 (11717891_a_at) / RFU IL23R (11748794_a_at) / Fold change /veh IL23R (11748794_a_at) / RFU TNFAIP8L3 (11732012_x_at) / Fold change /veh TNFAIP8L3 (11732012_x_at) / RFU MBOAT4 (11741988_at) / Fold change /veh MBOAT4 (11741988_at) / RFU 11764193_at / Fold change /veh 11764193_at / RFU TMEM53 (11763286_at) / Fold change /veh TMEM53 (11763286_at) / RFU MAGEB2 (11727129_at) / Fold change /veh MAGEB2 (11727129_at) / RFU TMEM200A (11744735_a_at) / Fold change /veh TMEM200A (11744735_a_at) / RFU CCDC152 (11751479_a_at) / Fold change /veh CCDC152 (11751479_a_at) / RFU FAM211A (11726209_a_at) / Fold change /veh FAM211A (11726209_a_at) / RFU RGS16 (11746705_a_at) / Fold change /veh RGS16 (11746705_a_at) / RFU VCAN (11755009_s_at) / Fold change /veh VCAN (11755009_s_at) / RFU RHOB (11743442_s_at) / Fold change /veh RHOB (11743442_s_at) / RFU RGS16 (11720943_a_at) / Fold change /veh RGS16 (11720943_a_at) / RFU RGS16 (11720944_at) / Fold change /veh RGS16 (11720944_at) / RFU, VPS4B / Fold change vs veh, VPS4B / RFU, CREB1 / Fold change vs veh, CREB1 / RFU, DNAJC13 / Fold change vs veh, DNAJC13 / RFU, GNAQ / Fold change vs veh, GNAQ / RFU, CDK5R1 / Fold change vs veh, CDK5R1 / RFU, ZRANB3 / Fold change vs veh, ZRANB3 / RFU, CUL4A / Fold change vs veh, CUL4A / RFU, CCNY / Fold change vs veh, CCNY / RFU, UFL1 / Fold change vs veh, UFL1 / RFU, COG3 / Fold change vs veh, COG3 / RFU, DIAPH2 / Fold change vs veh, DIAPH2 / RFU, SKA2 / Fold change vs veh, SKA2 / RFU, AFF3 / Fold change vs veh, AFF3 / RFU, LMF1 / Fold change vs veh, LMF1 / RFU, IPO11 / Fold change vs veh, IPO11 / RFU, DFFB / Fold change vs veh, DFFB / RFU, FOXP1 / Fold change vs veh, FOXP1 / RFU, CARD8 / Fold change vs veh, CARD8 / RFU, STRN3 / Fold change vs veh, STRN3 / RFU, ADK / Fold change vs veh, ADK / RFU, RASSF2 / Fold change vs veh, RASSF2 / RFU, WIPF1 / Fold change vs veh, WIPF1 / RFU, LARP1B / Fold change vs veh, LARP1B / RFU, RASA1 / Fold change vs veh, RASA1 / RFU, RB1 / Fold change vs veh, RB1 / RFU, PPFIA1 / Fold change vs veh, PPFIA1 / RFU, MAT2A / Fold change vs veh, MAT2A / RFU, CCT5 / Fold change vs veh, CCT5 / RFU, WDR92 / Fold change vs veh, WDR92 / RFU, CUX1 / Fold change vs veh, CUX1 / RFU, TTC7A / Fold change vs veh, TTC7A / RFU, TMEM135 / Fold change vs veh, TMEM135 / RFU, DEPTOR / Fold change vs veh, DEPTOR / RFU, CPM / Fold change vs veh, CPM / RFU, DNAJB6 / Fold change vs veh, DNAJB6 / RFU, CACNA2D3 / Fold change vs veh, CACNA2D3 / RFU, DTX4 / Fold change vs veh, DTX4 / RFU, TFCP2 / Fold change vs veh, TFCP2 / RFU, GMCL1 /// GMCL1P1 / Fold change vs veh, GMCL1 /// GMCL1P1 / RFU, AEBP2 / Fold change vs veh, AEBP2 / RFU, SNHG1 /// SNORD22 /// SNORD25 /// SNORD26 /// SNORD27 /// SNORD28 /// SNORD29 /// SNORD31 / Fold change vs veh, SNHG1 /// SNORD22 /// SNORD25 /// SNORD26 /// SNORD27 /// SNORD28 /// SNORD29 /// SNORD31 / Fold change (Aza/veh), C12orf56 (ProbeSet 11735607_a_at) / Fold change (ACY-1035/veh), C12orf56 (ProbeSet 11735607_a_at) / Fold change (Aza/veh), FGFR1OP (ProbeSet 11751329_s_at) / Fold change (ACY-1035/veh), FGFR1OP (ProbeSet 11751329_s_at) / Fold change (Aza/veh), VPS36 (ProbeSet 11739960_a_at) / Fold change (ACY-1035/veh), VPS36 (ProbeSet 11739960_a_at) / RFU SYPL1 (11715823_x_at) / Fold change /veh SYPL1 (11715823_x_at) / RFU IGFBP7 (11715501_s_at) / Fold change /veh IGFBP7 (11715501_s_at) / RFU REEP3 (11722064_at) / Fold change /veh REEP3 (11722064_at) / RFU IGLL1 (11728026_x_at) / Fold change /veh IGLL1 (11728026_x_at): dose or concentration left out as unconfirmed
Conditions: ProbeSet 11731461_x_at; LIST D

In the case of `Nc1ncn([C@@H]2O[C@H](CO)[C@@H](O)[C@H]2O)c(=O)n1` [azacitidine], the “Fold change vs veh, CPM” value is reported as 0.79.
